The values below come from patent publication US9957278B2, “Furopyridine compounds for the treatment of hepatitis C” (BRISTOL-MYERS SQUIBB COMPANY, priority 2014, dated 2018).

SMILES strings stand for the structures. pEC50: −log10 of the molar value. Where two headings read alike, the source gives them in different places. Bounds are passed on as bounds.

The test system of data set [1] is genotype 1b (Con-1) HCV replicon. The data set is described as follows: HCV Replicon Luciferase Assay (genotype 1b). The format is cell-based. The settings on record: Hepatitis C virus, 72 h, genotype 1b replicon in Huh-7 cells, Renilla luciferase, 3 days incubation; for pEC50: read-out: EC50 1b (class); for EC50: read-out: EC50 (uM) 1b. As to the method: The cell lines used to evaluate compounds consist of a human hepatocyte derived cell line (Huh-7) that constitutively expresses a genotype 1b (Con-1) HCV replicon or a genotype 1b (Con-1) HCV replicon with an asparagine replacing the cysteine at amino acid 316, or a genotype 2a (JFH-1) replicon, containing a Renilla luciferase reporter gene. These cells were maintained in Dulbecco's modified Eagle medium (DMEM) containing 10% FBS, 100 U/mL penicillin/streptomycin and 1.0 mg/mL G418.
To evaluate compound efficacy, titrated compounds were transferred to sterile 384-well tissue culture treated plates, and the plates were seeded with HCV replicon cells (50 μL at a density of 2.4×10^3 cells/well) in DMEM containing 4% FBS (final DMSO concentration at 0.5%). After 3 days incubation at 37° C., cells were analyzed for Renilla Luciferase activity using the EnduRen substrate (Promega cat #E6485) according to the manufacturer's directions. Briefly, the EnduRen substrate was diluted in DMEM and then added to the plates to a final concentration of 7.5 μM. The plates were incubated for at least 1 h at 37° C. then read on a Viewlux Imager (PerkinElmer) using a luminescence program. The 50% effective concentration (EC50) was calculated using the four-parameter logistic formula noted above.
Compound EC50 data is expressed as A: <100 nM; B=100-1000 nM; C>1000 nM).
Background: Replicon systems follow genome replication, usually without infectious particles.

The test system of another data set is HCV. The settings on record: cited from earlier work.

For `CNC(=O)c1c(-c2ccc(F)cc2)oc2nc(NCC(F)(F)F)c(-c3cccc(C(=O)NC(C)C(F)(F)F)c3)cc12` (centres unmarked) [Compound 30004], in data set [1], the pEC50 (commonly the EC50 on a negative log10 scale, so that one unit is a factor of ten) was above 7.00.

Take `CCC(NC(=O)c1cccc(-c2cc3c(C(=O)NC)c(-c4ccc(F)cc4)oc3nc2NCC(F)(F)F)c1)C(F)(F)F` (centres unmarked) [Compound 30005]: in data set [1], the pEC50 is above 7.00.

With `CNC(=O)c1c(-c2ccc(F)cc2)oc2nc(NCC(F)(F)F)c(-c3cccc(C(=O)NC(C)(C)C(F)(F)F)c3)cc12` [Compound 30006], in data set [1], the negative-log EC50 (pEC50) is above 7.00 and the half-maximal effective concentration (EC50) (in general, the concentration giving half of the maximal effect) was 0.0053 µM.

Take `CNC(=O)c1c(-c2ccc(F)cc2)oc2nc(NCC(F)(F)F)c(-c3cccc(C(=O)NC(C4CC4)C(F)(F)F)c3)cc12` (centres unmarked) [Compound 30007]: the pEC50 in data set [1] was above 7.00.

For `CNC(=O)c1c(-c2ccc(F)cc2)oc2nc(NCC(F)(F)F)c(-c3cccc(C(=O)NC4(C(=O)OC)CC4)c3)cc12` [Compound 30008], the pEC50 in data set [1] was above 7.00.

Regarding `CNC(=O)c1c(-c2ccc(F)cc2)oc2nc(NCC(F)(F)F)c(-c3cccc(C(=O)NC(C)(C)C(=O)OC)c3)cc12` [Compound 30009], the negative logarithm of the EC50 (pEC50) in data set [1] is above 7.00.

`CNC(=O)c1c(-c2ccc(F)cc2)oc2nc(NCC(F)(F)F)c(-c3cccc(C(=O)NC(C)(C)CO)c3)cc12` [Compound 30010]: in data set [1], the pEC50 is above 7.00.

Consider `CNC(=O)c1c(-c2ccc(F)cc2)oc2nc(NCC(F)(F)F)c(-c3cccc(C(=O)NCC(C)(C)C)c3)cc12` [Compound 30011], for which, in data set [1], the pEC50 is above 7.00.

In the case of `CNC(=O)c1c(-c2ccc(F)cc2)oc2nc(NCC(F)(F)F)c(-c3cccc(C(=O)N[C@@H](CO)c4ccccc4)c3)cc12` [Compound 30012], in data set [1], the pEC50 is above 7.00 and the EC50 was 0.0239 µM.

On to `CNC(=O)c1c(-c2ccc(F)cc2)oc2nc(NCC(F)(F)F)c(-c3cccc(C(=O)NC(C)(C)C(=O)NC)c3)cc12` [Compound 30013], for which the pEC50 in data set [1] is above 7.00.

For `CNC(=O)c1c(-c2ccc(F)cc2)oc2nc(NCC(F)(F)F)c(-c3cccc(C(=O)NCC(C)(C)CO)c3)cc12` [Compound 30014], in data set [1], the pEC50 is above 7.00.

As to `CNC(=O)c1c(-c2ccc(F)cc2)oc2nc(NCC(F)(F)F)c(-c3cccc(C(=O)NC(C)(C)c4ccccc4)c3)cc12` [Compound 30015], in data set [1], the negative-log EC50 (pEC50) was above 7.00 and the EC50 came to 0.0067 µM.

As for `CNC(=O)c1c(-c2ccc(F)cc2)oc2nc(NCC(F)(F)F)c(-c3cccc(C(=O)N[C@H](CO)c4ccccc4)c3)cc12` [Compound 30016], the pEC50 in data set [1] is above 7.00.

On to `CNC(=O)c1c(-c2ccc(F)cc2)oc2nc(NCC(F)(F)F)c(-c3ccc(OC)c(C(=O)NCC(F)(F)C(F)(F)C(F)(F)F)c3)cc12` [Compound 31001], for which, in data set [1], the pEC50 was above 7.00 and the EC50 was 0.014 µM.

Take `CNC(=O)c1c(-c2ccc(F)cc2)oc2nc(NCC(F)(F)F)c(-c3ccc(OC)c(C(=O)NC(CF)(CF)CF)c3)cc12` [Compound 31002]: the negative-log EC50 (pEC50) in data set [1] was above 7.00.

As for `CNC(=O)c1c(-c2ccc(F)cc2)oc2nc(NCC(F)(F)C(F)(F)F)c(-c3cccc(C(=O)NCC(C)(C)C)c3)cc12` [Compound 40001], in data set [1], the pEC50 was above 7.00 and the concentration giving a half-maximal response (EC50) was 0.0982 µM.

On to `CNC(=O)c1c(-c2ccc(F)cc2)oc2nc(NCC(F)(F)C(F)(F)F)c(-c3cccc(C(=O)NC(C)(C)C)c3)cc12` [Compound 40002], for which the pEC50 in data set [1] is above 7.00.

For `[2H]C([2H])([2H])C(NC(=O)c1cccc(-c2cc3c(C(=O)NC)c(-c4ccc(F)cc4)oc3nc2NCC(F)(F)C(F)(F)F)c1)(C([2H])([2H])[2H])C([2H])([2H])[2H]` [Compound 40003], the negative logarithm of the EC50 (pEC50) in data set [1] was 6.00 to 7.00.

Regarding `CNC(=O)c1c(-c2ccc(F)cc2)oc2nc(NCC(F)(F)C(F)(F)F)c(-c3cccc(C(=O)NC(CF)(CF)CF)c3)cc12` [Compound 40004], the pEC50 in data set [1] is above 7.00.

`C#CC(C)(C)NC(=O)c1cccc(-c2cc3c(C(=O)NC)c(-c4ccc(F)cc4)oc3nc2NCC(F)(F)C(F)(F)F)c1` [Compound 40005]: the pEC50 in data set [1] was 6.00 to 7.00.

For the compound `CNC(=O)c1c(-c2ccc(F)cc2)oc2nc(NCC(F)(F)C(F)(F)F)c(-c3ccc(OC)c(C(=O)NC(C)(C)C)c3)cc12` [Compound 41001], the negative logarithm of the EC50 (pEC50) in data set [1] is above 7.00.

As for `CNC(=O)c1c(-c2ccc(F)cc2)oc2nc(NCC(F)(F)C(F)(F)F)c(-c3ccc(OC)c(C(=O)NCC(C)(C)C)c3)cc12` [Compound 41002], in data set [1], the pEC50 was above 7.00.

Consider `CNC(=O)c1c(-c2ccc(F)cc2)oc2nc(NCC(F)(F)C(F)(F)F)c(-c3ccc(OC)c(C(=O)NC(CF)(CF)CF)c3)cc12` [Compound 41003], for which, in data set [1], the negative-log EC50 (pEC50) is above 7.00 and the half-maximal effective concentration (EC50) came to 0.0519 µM.

Regarding `C#CC(C)(C)NC(=O)c1cc(-c2cc3c(C(=O)NC)c(-c4ccc(F)cc4)oc3nc2NCC(F)(F)C(F)(F)F)ccc1OC` [Compound 41004], in data set [1], the pEC50 is above 7.00 and the EC50 was 0.0173 µM.

Take `[2H]C([2H])([2H])C(NC(=O)c1cc(-c2cc3c(C(=O)NC)c(-c4ccc(F)cc4)oc3nc2NCC(F)(F)C(F)(F)F)ccc1OC)(C([2H])([2H])[2H])C([2H])([2H])[2H]` [Compound 41005]: the pEC50 in data set [1] was above 7.00.

Consider `CNC(=O)c1c(-c2ccc(F)cc2)oc2nc(NCCO)c(-c3cccc(C(=O)NC(C)(C)C(F)(F)F)c3)cc12` [Compound 42001], for which the pEC50 in data set [1] was above 7.00.

Regarding `CNC(=O)c1c(-c2ccc(F)cc2)oc2nc(NCCO)c(-c3cccc(C(=O)NC(CF)(CF)CF)c3)cc12` [Compound 42002], the negative-log EC50 (pEC50) in data set [1] is above 7.00.

`[2H]C([2H])([2H])C(NC(=O)c1cccc(-c2cc3c(C(=O)NC)c(-c4ccc(F)cc4)oc3nc2NCCO)c1)(C([2H])([2H])[2H])C([2H])([2H])[2H]` [Compound 42003]: in data set [1], the pEC50 is above 7.00 and the concentration giving a half-maximal response (EC50) came to 0.0144 µM.

For the compound `CNC(=O)c1c(-c2ccc(F)cc2)oc2cc(N(CCO)S(C)(=O)=O)c(C3CC3)cc12` [HCV-796], the hepatic toxicity entry in the data set on HCV (extended dosing of the combination regimens) is given as “hepatic toxicity observed”. Moreover, in the data set on HCV (patients, single agent transient, more robust with interferon and ribavirin), the “HCV RNA levels in patients” value is given as “reduce HCV RNA levels”.
